Source: PMC9457828, “Chemical Markers and Pharmacological Characters of Pelargonium graveolens Essential Oil from Palestine” (Molecules, 2022)
Converted amounts (≈) assume the structure as drawn. Marks after values point to notes of the source that are not given here. Blank lines part the entries; values can stand above or below the compound they belong to.

Key:
[1] = DPPH free radical scavenging activity; conditions: anti-DPPH radical activity, 30 min, 517 nm
Description: Spectrophotometry at 517 nm was used to measure the absorbance, which was then compared with the control. The DPPH suppressant effect was calculated using the formula below: […]

lipase = target: lipase; set-up: method as in earlier work; conditions: PGEO from Jordan; cited from earlier work
[2] = tested on: Candida albicans (ATCC 90028); assay: Broth microdilution, C. albicans; type: cell-based; conditions: ATCC90028
Description: (§1) The microdilution method was used to assess the antimicrobial activity of the PGEO against selected bacterial and fungal strains according to the method [49].

Hep3B = assay: cells; type: cell-based; conditions: Homo sapiens, 24 h, MTS
Description: Human cervical (HeLa), breast (MCF-7), and liver (Hep3B) cancer cell lines were cultured in RPMI-1640 medium (Sigma-Norwich, Norfolk, UK). Then each kind of the tested cells was treated with 10% fetal bovine serum mixed with 1% penicillin/streptomycin antibiotics (BI, Ghaziabad, UP, India), and 1% L-glutamine (Sigma-Norwich, Norfolk, UK). The cancer cells were cultured at 37 °C in a humidified atmosphere with 5% CO2 and then planted in a 96-well plate at 2.6 × 10^4 cells/well. After 2 days, the EO with different concentrations (10, 30, 60, 120, and 500 µg/mL) was applied to the cells for 24 h. According to the manufacturer’s guidelines, cell viability was estimated by the CellTilter 96® Aqueous One Solution Cell Proliferation (MTS) method. In the end, 100 μL of media and 20 μL of MTS solution were added to each well, and the well plates were incubated at 37 °C for 2 h. The absorbance was measured at 490 nm.

S. aureus = tested on: S. aureus; set-up: method as in PMID 26221178; conditions: cited from earlier work
E. coli = tested on: E. coli; set-up: method as in PMID 26221178; conditions: cited from earlier work
S. aureus species = tested on: S. aureus species; set-up: method as in PMID 31284397; conditions: cited from earlier work
Proteus vulgaris (8427) = assay: Broth microdilution, P. vulgaris; type: cell-based
Description: as §1

[3] = tested on: Klebsiella pneumonia (13,883); assay: Broth microdilution, K. pneumoniae; type: cell-based
Description: as §1

[4] = tested on: Staphylococcus aureus (2592); assay: Broth microdilution, S. aureus; type: cell-based
Description: as §1

[5] = tested on: methicillin-resistant S. aureus (MRSA); assay: Broth microdilution, MRSA; type: cell-based; conditions: Staphylococcus aureus, clinical strain
Description: as §1

[6] = tested on: Escherichia coli (25,922); assay: Broth microdilution, E. coli; type: cell-based
Description: as §1

[7] = tested on: Pseudomonas aeruginosa (9027); assay: Broth microdilution, P. aeruginosa; type: cell-based
Description: as §1

SMILES: Cc1c(C)c2c(c(C)c1O)CCC(C)(C(=O)O)O2 (stereo not drawn) [Trolox]
IC50 against DPPH [1]: 1.88 ± 0.45 ^a µg/mL

SMILES: CCCCCCCCCCC[C@@H](C[C@@H]1OC(=O)[C@H]1CCCCCC)OC(=O)[C@H](CC(C)C)NC=O [Orlistat]
anti-lipase IC50 (lipase): 0.114 ± 0.0 µg/mL

SMILES: COc1cccc2c1C(=O)c1c(O)c3c(c(O)c1C2=O)C[C@@](O)(C(=O)CO)C[C@@H]3O[C@H]1C[C@H](N)[C@H](O)[C@H](C)O1 [Doxorubicin]
IC50 (Hep3B): 1.21 ± 1 µg/mL (≈ 2.23 µM)

SMILES: CC(C)=CCCC(C)CCO (stereo not drawn) [citronellol]
MIC S. aureus (S. aureus): 400 µg/mL (≈ 2560 µM)
MIC E. coli (E. coli): 300 µg/mL (≈ 1920 µM)
MIC S. aureus (S. aureus species): 30 µg/mL (≈ 192 µM)

Second part, the compound after the results:

MIC [2]: 3.12 ± 0.01 µg/mL (≈ 10.2 µM)
SMILES: OC(Cn1cncn1)(Cn1cncn1)c1ccc(F)cc1F [Fluconazole]

MIC (Proteus vulgaris (8427)): 0.06 ± 0.001 µg/mL (≈ 0.181 µM)
MIC [3]: 0.06 ± 0.001 µg/mL (≈ 0.181 µM)
SMILES: O=C(O)c1cn(C2CC2)c2cc(N3CCNCC3)c(F)cc2c1=O [Ciprofloxacin]

MIC [4]: 6.25 ± 0.2 µg/mL (≈ 17.9 µM)
MIC [5]: 32 ± 0.64 µg/mL (≈ 91.6 µM)
MIC [6]: 3.12 ± 0.56 µg/mL (≈ 8.93 µM)
MIC (Proteus vulgaris (8427)): 3.25 ± 0.21 µg/mL (≈ 9.3 µM)
MIC [3]: 12.5 ± 0.05 µg/mL (≈ 35.8 µM)
MIC [7]: 100 ± 1.01 µg/mL (≈ 286 µM)
SMILES: CC1(C)S[C@@H]2[C@H](NC(=O)[C@H](N)c3ccccc3)C(=O)N2[C@H]1C(=O)O [Ampicillin]
